Consider two compounds from publication PMC4729137, “Functional analysis of androgen receptor mutations that confer anti-androgen resistance identified in circulating cell-free DNA from prostate cancer patients” (Genome Biology, 2016).

SMILES strings stand for the structures. Positions count from the first letter of the chain named. A value given as a limit tells only on which side of the number the result lay.

One test has as its target T1, T878A-AR (Homo sapiens, UniProt P10275, T878A).
T1 sequence (P10275 1-920 T878A): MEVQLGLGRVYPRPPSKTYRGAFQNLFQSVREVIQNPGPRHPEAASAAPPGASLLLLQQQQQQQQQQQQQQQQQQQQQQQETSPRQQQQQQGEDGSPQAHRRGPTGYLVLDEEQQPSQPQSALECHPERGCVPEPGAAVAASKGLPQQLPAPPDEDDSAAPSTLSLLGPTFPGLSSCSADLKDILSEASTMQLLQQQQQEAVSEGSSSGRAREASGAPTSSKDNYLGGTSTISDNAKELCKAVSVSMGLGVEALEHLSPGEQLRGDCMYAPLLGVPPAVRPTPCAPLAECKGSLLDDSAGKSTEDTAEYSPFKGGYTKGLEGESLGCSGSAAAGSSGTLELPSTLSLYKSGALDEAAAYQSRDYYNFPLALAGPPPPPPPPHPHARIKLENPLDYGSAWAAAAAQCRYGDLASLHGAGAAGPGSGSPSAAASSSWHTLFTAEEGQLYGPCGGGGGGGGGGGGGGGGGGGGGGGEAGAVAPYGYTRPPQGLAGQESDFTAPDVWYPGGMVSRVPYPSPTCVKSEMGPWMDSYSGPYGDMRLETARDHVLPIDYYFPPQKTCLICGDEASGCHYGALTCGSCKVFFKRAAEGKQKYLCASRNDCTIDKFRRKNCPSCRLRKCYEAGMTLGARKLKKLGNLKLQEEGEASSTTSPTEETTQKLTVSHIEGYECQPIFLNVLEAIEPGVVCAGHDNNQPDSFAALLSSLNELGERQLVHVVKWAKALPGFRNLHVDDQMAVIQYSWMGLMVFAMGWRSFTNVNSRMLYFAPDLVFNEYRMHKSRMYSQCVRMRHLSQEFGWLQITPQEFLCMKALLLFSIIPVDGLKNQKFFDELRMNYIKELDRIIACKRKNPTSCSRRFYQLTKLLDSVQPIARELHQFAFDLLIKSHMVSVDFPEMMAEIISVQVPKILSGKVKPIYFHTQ
It counts as cell-based. More on the design: Full-length human AR (WT-AR) was encoded on a pcDNA3.1 expression plasmid; expressed in transfected cells; host or cells: PC3 cells. The settings on record: AR mutant T878A; transfected PC3 cells; 0.1 nM R1881; drug 0 to 50 μM. From the text: Full-length human AR (WT-AR) was encoded on a pcDNA3.1 expression plasmid (Life technologies). The LBD point mutations (single and multiple) were generated using the QuikChange II Site-Directed Mutagenesis Kit (Agilent Technologies) as per manufacturer’s instructions using WT-AR as the template. The mutagenic oligonucleotide primers were designed individually with the desired mutation in the middle of the primer with approximately 10 to 15 bases of correct sequence on both sides.
PC3 cells were seeded and transfected as described above. […] A non-stimulated/no R1881 control was used. After 24 h, cells were lysed and AR-dependent luciferase activity was quantified. Each concentration was assayed in quadruplicate n = 4, with a biological replicate of n = 3. Results were averaged and normalized by expressing them as a percentage of WT AR activity.

The target in a further test is T2, H875Y-AR (Homo sapiens, UniProt P10275, H875Y).
T2 sequence (P10275 1-920 H875Y): T1 sequence (P10275 1-920 T878A) with H875Y, A878T
Briefly: cell-based.

For the compound `CC(C)(O)C(=O)Nc1ccc([N+](=O)[O-])c(C(F)(F)F)c1` [Hydroxyflutamide, hydroxyflutamide], the “Agonist response to treatment” value on T878A-AR is reported as “Partial”. `C[C@]12CCC(=O)C=C1CC[C@@H]1[C@@H]2[C@@H](O)C[C@@]2(C)[C@H]1CC[C@]2(O)C(=O)CO` [hydrocortisone] displayed an EC50 on H875Y-AR above 500 nM.
